The supplement of paper PMC10307832

How the values were obtained:
Test in all cases: relative viability (nuclei count vs DMSO), 5 days (fraction); higher = more cells survive
RU-SKI 43 + AZD7762 = compound: CC[C@@H](C)CNCC(=O)N1CCC2=C([C@@H]1COC3=CC=CC(=C3)C)C=CS2 [RU-SKI 43] + NC(=O)Nc1cc(-c2cccc(F)c2)sc1C(=O)N[C@H]1CCCNC1 [AZD7762] (partner 0.2 µM)
How it was run: (§1)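 Lung cancer cell lines were seeded in 1536-well plates and dosed by pin tool the next day, with either a single drug or a fixed anchor-drug dose combined with five library-drug doses (not always all listed) spaced in √10 steps. Five days later, one step fixed the cells and stained their nuclei (final 0.05% Triton X-100, 1% formaldehyde, 1 ug/ml Hoechst), and nuclei were counted on 4× images. Relative viability is the nuclei count in treated wells divided by the count in vehicle wells, and each value is the median of duplicate plates.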

MK-8033 + Trametinib = compound: Cn1cc(-c2cnc3ccc4ccc(CS(=O)(=O)NCc5ccccn5)cc4c(=O)c3c2)cn1 [MK-8033] + CC(=O)Nc1cccc(-n2c(=O)n(C3CC3)c(=O)c3c(Nc4ccc(I)cc4F)n(C)c(=O)c(C)c32)c1 [Trametinib] (partner 0.02 µM)
How it was run: as §1

RU-SKI 43 + Pemetrexed = compound: CC[C@@H](C)CNCC(=O)N1CCC2=C([C@@H]1COC3=CC=CC(=C3)C)C=CS2 [RU-SKI 43] + Nc1nc2[nH]cc(CCc3ccc(C(=O)N[C@@H](CCC(=O)O)C(=O)O)cc3)c2c(=O)[nH]1 [Pemetrexed] (partner 0.2 µM)
How it was run: as §1

RU-SKI 43 + Decitabine = compound: CC[C@@H](C)CNCC(=O)N1CCC2=C([C@@H]1COC3=CC=CC(=C3)C)C=CS2 [RU-SKI 43] + Nc1ncn([C@H]2C[C@H](O)[C@@H](CO)O2)c(=O)n1 [Decitabine] (partner 2 µM)
How it was run: as §1

Cell Line | relative viability (RU-SKI 43 + AZD7762; first compound 0.1 µM) | relative viability (RU-SKI 43 + AZD7762; first compound 0.3162 µM) | relative viability (RU-SKI 43 + AZD7762; first compound 1 µM) | relative viability (RU-SKI 43 + AZD7762; first compound 3.162 µM) | relative viability (RU-SKI 43 + AZD7762; first compound 10 µM) | relative viability (MK-8033 + Trametinib; first compound 0.02 µM) | relative viability (MK-8033 + Trametinib; first compound 0.2 µM) | relative viability (MK-8033 + Trametinib; first compound 0.6325 µM) | relative viability (MK-8033 + Trametinib; first compound 2 µM) | relative viability (RU-SKI 43 + Pemetrexed; first compound 0.1 µM) | relative viability (RU-SKI 43 + Pemetrexed; first compound 0.3162 µM) | relative viability (RU-SKI 43 + Pemetrexed; first compound 1 µM) | relative viability (RU-SKI 43 + Pemetrexed; first compound 3.162 µM) | relative viability (RU-SKI 43 + Pemetrexed; first compound 10 µM) | relative viability (RU-SKI 43 + Decitabine; first compound 0.1 µM) | relative viability (RU-SKI 43 + Decitabine; first compound 0.3162 µM) | relative viability (RU-SKI 43 + Decitabine; first compound 1 µM) | relative viability (RU-SKI 43 + Decitabine; first compound 3.162 µM) | relative viability (RU-SKI 43 + Decitabine; first compound 10 µM) | relative viability (MK-8033 + Trametinib; first compound 0.06325 µM)
HCC-827 | 0.188 | 0.155 | 0.206 | 0.223 | 0.197 | 0.578 | 0.534 | 0.547 | 0.605 | 0.289 | 0.267 | 0.264 | 0.265 | 0.253 | 0.336 | 0.269 | 0.395 | 0.288 | 0.315 | 
HOP-62 | 0.463 | 0.643 | 0.71 | 0.704 | 0.529 | 0.315 | 0.344 | 0.371 | 0.35 | 0.327 | 0.292 | 0.344 | 0.334 | 0.284 | 0.231 | 0.179 | 0.248 | 0.202 | 0.209 | 0.381
LC-2-ad | 0.899 | 0.945 | 0.95 | 0.896 | 0.857 | 0.895 | 0.885 | 0.916 | 0.898 | 0.262 | 0.25 | 0.31 | 0.258 | 0.247 | 0.866 | 0.766 | 0.81 | 0.849 | 0.728 | 0.888
LCLC-97TM1 | 0.373 | 0.184 | 0.255 | 0.303 | 0.239 | 0.181 |  | 0.207 | 0.209 | 0.188 | 0.175 | 0.19 | 0.184 | 0.178 | 0.24 | 0.239 | 0.243 | 0.237 | 0.246 | 0.19
LCLC-103H | 0.832 | 0.804 | 0.788 | 0.821 | 0.763 | 0.637 | 0.673 | 0.672 | 0.696 | 0.469 | 0.464 | 0.482 | 0.492 | 0.5 | 0.728 | 0.762 | 0.732 | 0.764 | 0.72 | 0.705
LK-2 | 0.342 | 0.372 | 0.486 | 0.49 | 0.468 | 0.668 | 0.688 | 0.849 | 0.766 | 0.362 | 0.343 | 0.347 | 0.245 | 0.304 | 0.317 | 0.279 | 0.408 | 0.298 | 0.246 | 0.687
LOU-NH91 | 0.789 | 0.74 | 0.85 | 0.831 | 0.74 | 0.761 | 0.756 | 0.789 | 0.792 | 0.399 | 0.345 | 0.456 | 0.389 | 0.378 | 0.786 | 0.828 | 0.809 | 0.805 | 0.824 | 0.73
LU99A | 0.255 | 0.377 | 0.264 | 0.267 | 0.343 | 0.582 | 0.492 | 0.582 | 0.503 | 0.164 | 0.207 | 0.168 | 0.19 | 0.162 | 0.746 | 1.1 | 1.05 | 0.91 | 0.711 | 0.48
NCI-H520 |  |  |  |  |  | 0.615 | 0.56 | 0.795 | 0.629 | 0.651 | 0.801 | 0.831 | 0.858 | 0.636 | 0.502 | 0.564 | 0.568 | 0.589 | 0.501 | 0.565
NCI-H661 |  |  |  |  |  | 0.544 | 0.577 | 0.57 | 0.515 | 0.874 | 1.05 | 0.902 | 0.952 | 0.861 | 0.483 | 0.603 | 0.588 | 0.557 | 0.465 | 0.498
NCI-H727 |  | 0.707 | 0.724 | 0.638 | 0.543 | 0.371 | 0.339 | 0.393 | 0.429 |  |  |  |  |  |  | 0.805 | 0.882 | 0.834 | 0.972 | 0.358
NCI-H1563 |  |  |  |  |  |  |  |  |  | 0.772 | 0.785 | 0.84 | 0.725 | 0.733 |  |  |  |  |  | 
NCI-H1650 |  |  |  |  |  | 0.568 | 0.53 | 0.625 | 0.54 | 0.344 | 0.37 | 0.439 | 0.377 | 0.322 | 0.315 | 0.36 | 0.338 | 0.509 | 0.34 | 0.637
NCI-H1703 | 0.177 | 0.137 | 0.134 | 0.11 | 0.12 |  |  |  |  |  |  |  |  |  |  |  |  |  |  | 
NCI-H2009 |  |  |  |  |  | 0.282 | 0.215 | 0.291 | 0.238 | 1.06 | 1.17 | 1.14 | 1.06 | 1.08 | 0.374 | 0.332 | 0.364 | 0.376 | 0.283 | 0.255
NCI-H2023 |  |  |  |  |  | 0.552 | 0.453 | 0.475 | 0.366 | 0.249 | 0.259 | 0.286 | 0.21 | 0.243 | 0.211 | 0.254 | 0.22 | 0.246 | 0.237 | 0.511
NCI-H2228 |  |  |  |  |  | 0.278 | 0.435 | 0.341 | 0.582 | 0.288 | 0.353 | 0.302 | 0.376 | 0.299 |  |  |  |  |  | 0.403
SK-LU-1 |  |  |  |  |  | 0.484 | 0.437 | 0.445 | 0.468 | 0.969 | 1.16 | 1.07 | 1.04 | 0.939 | 0.571 | 0.684 | 0.612 | 0.593 | 0.535 | 0.482
SK-MES-1 |  |  |  |  |  | 0.44 | 0.539 | 0.583 | 0.534 | 0.962 | 1.13 | 1.12 | 0.964 | 0.916 | 0.313 | 0.385 | 0.391 | 0.403 | 0.389 | 0.478
SW 1573 |  |  |  |  |  | 0.471 | 0.573 | 0.582 | 0.568 | 0.674 | 0.942 | 0.991 | 0.867 | 0.759 | 0.483 | 0.594 | 0.51 | 0.532 | 0.433 | 0.504
